ChEMBL document CHEMBL1155378, “Design, synthesis, and evaluation of indole compounds as novel inhibitors targeting Gp41” (Bioorg Med Chem Lett, 2010)

Tests used:
[1] = Cytotoxicity against human HL2/3 cells after 24 hrs by XTT proliferation assay; type: cell-based; settings: hl2/3, 24 h
[2] = Displacement of C18-Aib-lucifer yellow from HIV1 envelope glycoprotein gp41 Fe(env2.0)3 by fluorescence assay; set-up: species or system Human immunodeficiency virus 1
[3] = test system: Human immunodeficiency virus 1; experiment: Inhibition of HIV1 envelope glycoprotein gp41 by cell-cell fusion assay
[4] = Inhibition of HIV1 envelope glycoprotein gp41; set-up: species or system Human immunodeficiency virus 1
[5] = Inhibition of HIV1 envelope glycoprotein 41-mediated membrane fusion between virus-transfected human HL2/3 cells and human TZM-bl cells after 6 hrs by fluorescence-based cell-cell fusion assay; set-up: species or system Human immunodeficiency virus 1

O=C(O)c1cccc(Cc2ccc3ccn(Cn4ccc5ccc(Cc6cccc(C(=O)O)c6)cc54)c3c2)c1
CC50 [1]: 80 µM

O=C(O)c1cccc(Cc2ccc3ccn(-c4cccc(C(=O)O)c4)c3c2)c1
Ki [2]: 107 µM | CC50 [1]: > 400 µM

COc1ccc(S(=O)(=O)O)cc1/N=N/c1c(S(=O)(=O)O)cc2cc(Nc3nc(Nc4ccccc4)nc(Nc4cc(C)c(/N=N/c5cc(S(=O)(=O)O)cc6cc(S(=O)(=O)O)cc(O)c56)cc4OC)n3)ccc2c1O
INH [3]: 4.2 µM | IC50 [4]: 0.62 µM

Cc1ccc(C2=NNC3C=CC4C(C(F)(F)F)=CC(C(F)(F)F)=NC4N23)cc1 (stereo not given)
IC50 [5]: 18 µM

COc1ccc(Cn2ccc3ccc(Cc4cccc(C(=O)O)c4)cc32)cc1
CC50 [1]: 100 µM

O=C(O)c1cccc(Cc2ccc(F)cc2)c1
Ki [2]: 548 µM | IC50 [5]: 560 µM

COc1cccc(-n2ccc3ccc(Cc4cccc(C(=O)O)c4)cc32)c1
CC50 [1]: > 100 µM
